Test results published in patent EP1717234A1, “Phenoxypropylpiperidines and -pyrrolidines and their use as histamine H3-receptor ligands” (BIOPROJET, priority 2005, dated 2006).
Read-outs that look alike come from different tables or passages of the source.

Experiments:
CYP2D6 = CYP2D6 (Homo sapiens, UniProt P10635); test: Cytochrome inhibition, fluorometric microtiter plate assay (substrate AMMC); assay type: biochemical
Source text: (§1) Among the xenobiotic-metabolizing CYPs, five forms, CYP1A2, CYP2C9, CYP2C19, CYP2D6 and CYP3A4 appear to be the major CYP isoforms responsible for the oxidative metabolism of drugs or xenobiotics. Inhibition of CYP-mediated metabolism, often the mechanism for drug-drug interactions, can limit the use of a drug because of adverse clinical effects. The potential for CYP enzyme inhibition is routinely assessed by performing in vitro inhibition studies by measuring the rates of metabolism of a probe biotransformation in the presence and absence of test molecules. […] The incubation conditions for each cytochrome isoform were as follow: [table]

CYP3A4 = CYP3A4 (Homo sapiens, UniProt P08684); test: Cytochrome inhibition, fluorometric microtiter plate assay (substrate BFC); assay type: biochemical
Source text: as §1

[1] = molecular target: human histamine H3 receptors (Homo sapiens, UniProt Q9Y5N1); test: H3 binding ([125I]iodoproxyfan, membranes); details: hH3 binding of the radioligand
Method: Membranes expressing human histamine H3 receptors were incubated 1 hour at room temperature in binding buffer containing 50 mM Na2HPO4/KH2PO4 pH 7.5 in a final volume of 200 µl. […] Non-specific binding was determined in the presence of 1 µM lmetit. The reaction was stopped by rapid filtration through GF/B filters (pre-soaked for 2 hours with 0.3% polyethyleneimine) followed by 3 ice cold binding buffer washes. The filter-bound radioactivity was measured in a liquid scintillation counter with 50µl of scintillation fluid.

[2] = compounds of the invention, human recombinant CYP2D6
[3] = compounds of the invention, human recombinant CYP3A4

CYP3A4, sequence (P08684 whole entry): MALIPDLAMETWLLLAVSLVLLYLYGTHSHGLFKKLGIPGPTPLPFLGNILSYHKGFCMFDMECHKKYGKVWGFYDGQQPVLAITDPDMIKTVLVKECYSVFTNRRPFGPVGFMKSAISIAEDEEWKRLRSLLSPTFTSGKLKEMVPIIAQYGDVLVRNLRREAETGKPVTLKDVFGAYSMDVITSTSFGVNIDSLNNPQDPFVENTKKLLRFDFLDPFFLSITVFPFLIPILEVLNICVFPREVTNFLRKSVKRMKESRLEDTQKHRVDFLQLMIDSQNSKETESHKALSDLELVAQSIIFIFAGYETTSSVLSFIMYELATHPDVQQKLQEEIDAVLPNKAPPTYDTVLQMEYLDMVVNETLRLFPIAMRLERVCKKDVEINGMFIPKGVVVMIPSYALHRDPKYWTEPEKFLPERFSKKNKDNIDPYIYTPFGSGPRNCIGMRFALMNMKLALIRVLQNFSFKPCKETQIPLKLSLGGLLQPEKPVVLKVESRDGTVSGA
CYP2D6, sequence (P10635 whole entry, canonical isoform): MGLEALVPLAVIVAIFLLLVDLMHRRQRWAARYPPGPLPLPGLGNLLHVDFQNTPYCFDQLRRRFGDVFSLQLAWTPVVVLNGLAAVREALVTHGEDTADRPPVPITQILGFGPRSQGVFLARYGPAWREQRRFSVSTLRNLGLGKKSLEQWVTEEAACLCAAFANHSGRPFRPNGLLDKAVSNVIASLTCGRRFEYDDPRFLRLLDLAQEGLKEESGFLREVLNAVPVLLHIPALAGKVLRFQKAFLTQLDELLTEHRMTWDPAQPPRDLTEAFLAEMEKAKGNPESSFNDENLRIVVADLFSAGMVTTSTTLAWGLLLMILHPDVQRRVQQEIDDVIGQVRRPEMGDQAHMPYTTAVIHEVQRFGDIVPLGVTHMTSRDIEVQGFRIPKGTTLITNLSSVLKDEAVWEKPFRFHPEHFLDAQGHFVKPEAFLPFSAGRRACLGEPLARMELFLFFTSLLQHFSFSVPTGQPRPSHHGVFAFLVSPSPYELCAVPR
human histamine H3 receptors, sequence (Q9Y5N1 whole entry): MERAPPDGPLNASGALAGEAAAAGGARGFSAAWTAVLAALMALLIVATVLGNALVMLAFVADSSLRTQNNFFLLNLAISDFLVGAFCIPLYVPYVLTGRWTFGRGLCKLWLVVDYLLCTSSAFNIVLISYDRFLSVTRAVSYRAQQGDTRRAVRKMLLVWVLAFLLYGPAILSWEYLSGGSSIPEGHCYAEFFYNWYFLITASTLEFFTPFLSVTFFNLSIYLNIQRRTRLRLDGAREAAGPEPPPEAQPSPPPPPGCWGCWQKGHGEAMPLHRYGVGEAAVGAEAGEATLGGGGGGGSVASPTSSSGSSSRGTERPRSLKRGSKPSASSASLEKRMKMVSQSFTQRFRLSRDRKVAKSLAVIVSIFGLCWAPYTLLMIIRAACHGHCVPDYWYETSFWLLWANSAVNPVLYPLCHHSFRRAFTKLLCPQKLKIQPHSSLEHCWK

| Structure (SMILES) | IC50 (CYP2D6; [2]) [nM] | IC50 (CYP3A4; [3]) [nM] | also measured |
| --- | --- | --- | --- |
| C[C@H]1C[C@H](C)CN(CCCOc2ccc(C(=O)N(C)C)cc2)C1 (relative stereo) [Example 1, trans-1-{3-[4-(N,N-dimethylcarbamoyl)phenoxy]propyl}-3,5-dimethylpiperidine] | > 100000 |  |  |
| Cc1ccc(-c2ccc(OCCCN3CCCCC3)cc2)cc1 [Example 24, 1-{3-[(4'-methylbiphenyl-4-yl)oxy]propyl}piperidine] |  | > 2000 |  |
| Ic1ccc(COCCCc2cnc[nH]2)cc1 [[^125]iodoproxyfan] |  |  | Kd [1]: 0.078 ± 0.006 nM |
| C[C@H]1C[C@H](C)CN(CCCOc2ccc(C3=NCCC3)cc2)C1 (relative stereo) [Example 17, trans-1-{3-[4-(4,5-dihydro-3H-pyrrol-2-yl)phenoxy]propyl}-3,5-dimethylpiperidine] | > 100000 | > 100000 |  |
| Cc1cc(-c2ccc(OCCCN3CCC[C@H](C)C3)cc2)ccn1 [Example 59] |  |  | IC50 (CYP3A4; read-out: CYP3A4 (IC50, concentrations for 50% inhibition), comparative compounds of WO 00/06254): > 1000 nM; IC50 (CYP2D6; read-out: CYP2D6 (IC50, concentrations for 50% inhibition), comparative compounds of WO 00/06254): 1000 nM |
